Data from patent US20230092389A1, “UNIT DOSES, AEROSOLS, KITS, AND METHODS FOR TREATING HEART CONDITIONS BY PULMONARY ADMINISTRATION” (InCarda Therapeutics, Inc., priority 2017, published 2023).
Like-named read-outs stand apart in the source and are kept apart here.

Experiments:
healthy volunteers [1] = conditions: in vivo
Protocol: (§1) 3 cohorts of subjects, in total 34 healthy adult volunteers, were recruited for Part A study.
(§2) Part B was an open label non-randomized crossover in a cohort of 6 evaluable healthy adult volunteers.
In addition, the effects of changing posture from semi-recumbent to seated upright, vice-versa and during inhalation on HR and BP were assessed (Cohort 5).

healthy volunteers [2] = conditions: human, in vivo
Description: as §1, §2
Adverse events were monitored and recorded.

Question: `O=C(NCC1CCCCN1)c1cc(OCC(F)(F)F)ccc1OCC(F)(F)F` (stereo not shown) [flecainide] was tested. Which “dose dependence of magnitude of HR increases” value (healthy volunteers [1]) did it give?
Answer: not dose-dependent

Question: What about the “magnitude of blood pressure changes vs placebo” value (healthy volunteers [1]) of the same molecule?
Answer: similar

Question: What about the HR (healthy volunteers [1]; iv, 2 mg/kg) of the same molecule?
Answer: An increase in HR was observed

Question: And the “systolic and diastolic BP” value (healthy volunteers [1]; iv, 2 mg/kg)?
Answer: Decreases in systolic and diastolic BP

Question: What about the “Adverse Event: Cough” value (healthy volunteers [2]; both) of the same molecule?
Answer: 1

Question: What about the “Adverse Event: Lightheadedness” value (healthy volunteers [2]; both) of the same molecule?
Answer: 1

Question: And the “Number of Moderate or Severe TEAEs” value (healthy volunteers [2]; both)?
Answer: 3

Question: And the “Number of Study Drug Related TEAEs” value (healthy volunteers [2]; both)?
Answer: 43

Question: What about the “Number of Study Drug Related, Moderate or Severe TEAEs” value (healthy volunteers [2]; both) of the same molecule?
Answer: 2

Question: And the “Number of TEAEs” value (healthy volunteers [2]; both)?
Answer: 59

Question: And the “Subjects with at least one Moderate or Severe TEAE” value (healthy volunteers [2]; both)?
Answer: 2 (8) n (%)

Question: What about the “Subjects with at least one Study Drug Related TEAE” value (healthy volunteers [2]; both) of the same molecule?
Answer: 22 (80) n (%)

Question: And the “Subjects with at least one Study Drug Related, Moderate or Severe TEAE” value (healthy volunteers [2]; both)?
Answer: 1 (4) n (%)

Question: And the “Subjects with at least one TEAE” value (healthy volunteers [2]; both)?
Answer: 22 (88) n (%)

Question: What about the “TEAE: Catheter site pain” value (healthy volunteers [2]; both) of the same molecule?
Answer: 2 (8) [2] n (%) [events]

Question: What about the “TEAE: Cough” value (healthy volunteers [2]; both) of the same molecule?
Answer: 3 (12) [4] n (%) [events]

Question: And the “TEAE: Diarrhoea” value (healthy volunteers [2]; both)?
Answer: 2 (8) [2] n (%) [events]

Question: What about the “TEAE: Dizziness” value (healthy volunteers [2]; both) of the same molecule?
Answer: 3 (12) [3] n (%) [events]

Question: What about the “TEAE: Dry mouth” value (healthy volunteers [2]; both) of the same molecule?
Answer: 3 (12) [3] n (%) [events]

Question: And the “TEAE: Dysgeusia” value (healthy volunteers [2]; both)?
Answer: 2 (8) [2] n (%) [events]

Question: And the “TEAE: Dyspnoea” value (healthy volunteers [2]; both)?
Answer: 6 (24) [6] n (%) [events]

Question: And the “TEAE: Gastrointestinal disorders” value (healthy volunteers [2]; both)?
Answer: 8 (32) [11] n (%) [events]

Question: And the “TEAE: General disorders and administration site conditions” value (healthy volunteers [2]; both)?
Answer: 3 (12) [4] n (%) [events]

Question: And the “TEAE: Headache” value (healthy volunteers [2]; both)?
Answer: 4 (16) [5] n (%) [events]

Question: What about the “TEAE: Nervous system disorders” value (healthy volunteers [2]; both) of the same molecule?
Answer: 8 (32) [11] n (%) [events]

Question: What about the “TEAE: Oropharyngeal discomfort” value (healthy volunteers [2]; both) of the same molecule?
Answer: 11 (44) [11] n (%) [events]

Question: And the “TEAE: Respiratory, thoracic and mediastinal disorders” value (healthy volunteers [2]; both)?
Answer: 17 (68) [25] n (%) [events]

Question: What about the “duration of the majority of adverse events” value (healthy volunteers [2]; both) of the same molecule?
Answer: 15 to 90 min

Question: What about the “subjects with study-drug related Cough” value (healthy volunteers [2]; both) of the same molecule?
Answer: 12%

Question: What about the “subjects with study-drug related Dizziness” value (healthy volunteers [2]; both) of the same molecule?
Answer: 12%

Question: What about the “subjects with study-drug related Dry mouth” value (healthy volunteers [2]; both) of the same molecule?
Answer: 12%

Question: What about the “subjects with study-drug related Dysgeusia” value (healthy volunteers [2]; both) of the same molecule?
Answer: 8%

Question: And the “subjects with study-drug related Dyspnoea (shortness of breath)” value (healthy volunteers [2]; both)?
Answer: 16%

Question: And the “subjects with study-drug related Headache” value (healthy volunteers [2]; both)?
Answer: 8%

Question: What about the “subjects with study-drug related Oropharyngeal discomfort” value (healthy volunteers [2]; both) of the same molecule?
Answer: 40%

Question: What about the “average events per subject” value (healthy volunteers [2]) of the same molecule?
Answer: 2

Question: What about the “probably study-drug related oropharyngeal discomfort (events)” value (healthy volunteers [2]) of the same molecule?
Answer: 4

Question: And the “study-drug related paresthesia oral (events)” value (healthy volunteers [2])?
Answer: 3

Question: And the “TEAE: Hypoaesthesia oral” value (healthy volunteers [2]; 2 mg/kg)?
Answer: 1 (14) [1] n (%) [events]

Question: And the “TEAE: Paraesthesia oral” value (healthy volunteers [2]; 2 mg/kg)?
Answer: 3 (43) [3] n (%) [events]

Question: What about the “average events per subject” value (healthy volunteers [2]; iv) of the same molecule?
Answer: 7

Question: What about the “severe and moderate AEs probably related to study drug” value (healthy volunteers [2]; iv) of the same molecule?
Answer: 1 severe and 2 moderate intensity AEs

Question: And the “study-drug related application site coldness (occurrences)” value (healthy volunteers [2]; iv)?
Answer: 2

Question: What about the “study-drug related dizziness (events)” value (healthy volunteers [2]; iv) of the same molecule?
Answer: 6

Question: What about the “study-drug related headache (events)” value (healthy volunteers [2]; iv) of the same molecule?
Answer: 5

Question: And the “study-drug related peripheral coldness, palpitations, and chest discomfort, occurrences each” value (healthy volunteers [2]; iv)?
Answer: 2

Question: And the “systolic BP in subject whose IV infusion was interrupted for hypotension” value (healthy volunteers [2]; iv)?
Answer: < 65 mmHg

Question: What about the “Number of Moderate or Severe TEAEs” value (healthy volunteers [2]; iv, 2 mg/kg) of the same molecule?
Answer: 4

Question: What about the “Number of Related TEAEs” value (healthy volunteers [2]; iv, 2 mg/kg) of the same molecule?
Answer: 35

Question: What about the “Number of Related, Moderate or Severe TEAEs” value (healthy volunteers [2]; iv, 2 mg/kg) of the same molecule?
Answer: 4

Question: And the “Number of SAEs” value (healthy volunteers [2]; iv, 2 mg/kg)?
Answer: 0

Question: And the “Number of Subjects with at least one Moderate or Severe TEAE” value (healthy volunteers [2]; iv, 2 mg/kg)?
Answer: 2 (29) n (%)

Question: And the “Number of Subjects with at least one Related TEAE” value (healthy volunteers [2]; iv, 2 mg/kg)?
Answer: 7 (100) n (%)

Question: And the “Number of Subjects with at least one Related, Moderate or Severe TEAE” value (healthy volunteers [2]; iv, 2 mg/kg)?
Answer: 2 (29) n (%)

Question: What about the “Number of Subjects with at least one SAE” value (healthy volunteers [2]; iv, 2 mg/kg) of the same molecule?
Answer: 0 n (%)

Question: What about the “Number of Subjects with at least one TEAE” value (healthy volunteers [2]; iv, 2 mg/kg) of the same molecule?
Answer: 7 (100) n (%)

Question: What about the “Number of Treatment-Emergent Adverse Events” value (healthy volunteers [2]; iv, 2 mg/kg) of the same molecule?
Answer: 49

Question: What about the “TEAE: Application site coldness” value (healthy volunteers [2]; iv, 2 mg/kg) of the same molecule?
Answer: 2 (29) [2] n (%) [events]

Question: And the “TEAE: Catheter site pain” value (healthy volunteers [2]; iv, 2 mg/kg)?
Answer: 2 (29) [2] n (%) [events]

Question: And the “TEAE: Chest discomfort” value (healthy volunteers [2]; iv, 2 mg/kg)?
Answer: 1 (14) [3] n (%) [events]

Question: And the “TEAE: Dizziness” value (healthy volunteers [2]; iv, 2 mg/kg)?
Answer: 6 (86) [6] n (%) [events]

Question: And the “TEAE: Fatigue” value (healthy volunteers [2]; iv, 2 mg/kg)?
Answer: 2 (29) [2] n (%) [events]

Question: What about the “TEAE: Gastrointestinal disorders” value (healthy volunteers [2]; iv, 2 mg/kg) of the same molecule?
Answer: 5 (71) [6] n (%) [events]

Question: And the “TEAE: General disorders and administration site conditions” value (healthy volunteers [2]; iv, 2 mg/kg)?
Answer: 4 (57) [13] n (%) [events]

Question: And the “TEAE: Headache” value (healthy volunteers [2]; iv, 2 mg/kg)?
Answer: 5 (71) [6] n (%) [events]

Question: And the “TEAE: Nervous system disorders” value (healthy volunteers [2]; iv, 2 mg/kg)?
Answer: 7 (100) [13] n (%) [events]

Question: And the “TEAE: Peripheral coldness” value (healthy volunteers [2]; iv, 2 mg/kg)?
Answer: 2 (29) [3] n (%) [events]

Question: And the “TEAE: Respiratory, thoracic and mediastinal disorders” value (healthy volunteers [2]; iv, 2 mg/kg)?
Answer: 2 (29) [3] n (%) [events]

Question: And the “TEAE: Vascular disorders” value (healthy volunteers [2]; iv, 2 mg/kg)?
Answer: 3 (43) [4] n (%) [events]

Question: What about the “fewer TEAEs with IH than IV” value (healthy volunteers [2]; iv, 2 mg/kg) of the same molecule?
Answer: 4 fold
